Results published in US20250221977A1, “NOVEL BENZOTHIOPHENE DERIVATIVE AND USE THEREOF AS BET INHIBITOR” (BENOBIO CO., LTD., priority 2022, published 2025).

System: HPAF, a human pancreatic cancer cell line
Experiment: In vitro anticancer efficacy test on human pancreatic cancer cell line (CCK cell viability assay)
Assay type: cell-based
Details: for IC50: HPAF cells, 96 hours, CCK assay
Experimental: HPAF, a human pancreatic cancer cell line, was dispensed in a 96-well plate and incubated in a 37° C., 5% CO2 incubator for 24 hours. Thereafter, 10 μl of Examples and Comparative Examples were treated to each well at different concentrations (1 nM, 0.01 μM, 0.1 μM, 1 μM, 10 μM, 100 μM) and incubated for 96 hours. Each well was treated with a reagent using a CCK assay kit (Dong-In LS, D Plus CCK cell viability assay kit), and reacted in a 37° C., 5% CO2 incubator for 30 minutes to 1 hour, and then the absorbance was measured at a wavelength of 450 nm using a microplate reader (SpectraMax i3x, USA). The IC50 value was confirmed using the GraphPad Prism 5 (GraphPad Software, Inc., San Diego, USA) program from the results obtained at this time.

Row | Structure (SMILES) | IC50 (Homo sapiens, Pancreatic cancer cell) | IC50 value for HPAF, times lower than Comparative Example 1 (versus JQ1) | IC50
1 | CNC(=O)CCN(Cc1ccc(C(F)F)cc1)C(=O)c1cc2c(OC)ccc(-c3ccc(=O)n(C)c3)c2s1 [BBC1115, N-[[4-(difluoromethyl)phenyl]methyl]-4-methoxy-N-[3-(methylamino)-3-oxo-propyl]-7-(1-methyl-6-oxo-3-pyridyl)benzothiophene-2-carboxamide] | 130 nM | about 17.69 times | –
2 | Cc1sc2c(c1C)C(c1ccc(Cl)cc1)=N[C@@H](CC(=O)OC(C)(C)C)c1nnc(C)n1-2 [JQ1, reference compound] | – | – | 2300 nM
